Assays:
p16, p21 = assay: qRT-PCR of p16 and p21 mRNA in replicative senescent foreskin cells (Example 4); assay type: cell-based, human; conditions: LX-112 3 μM; senescent untreated = 100%
Description: In the same manner as Example 3, natural aging of human foreskin cells was induced, treated with LX-112 at a concentration of 3 μM, and the amounts of the mRNA of p16 and p21, aging-related markers, were analyzed by qRT-PCR (quantitative real-time PCR). As a control group, foreskin cells before senescence induction were used. Specifically, cells were collected and treated with TRIzol Reagent (purchased from Thermo Fisher Scientific) to extract total RNA. The concentration of extracted total RNA was quantified using Nanodrop (purchased from Micro Digital). Genomic DNA was removed from the extracted total RNA using SuperScript IV VILO Master Mix with ezDNase Enzyme (purchased from Thermo Fisher Scientific), and cDNA was prepared. Using the synthesized cDNA, using the housekeeping gene GAPDH as a standard, qRT-PCR for p16 and p21 was performed using SFCgreen I qPCR Master Mix (purchased from SFC Probe), and was analyzed with CFX Connect Real-Time PCR Detection System (purchased from Bio Rad). […] Table 14 calculates the mRNA amounts of p16 and p21 after senescence was induced to 100%, respectively, and compared them with the mRNA amounts of p16 and p21 after treatment with LX-112.

lipofuscin = lipofuscin (Sudan Black B) staining of muscle of naturally aged mice (Example 7-4); assay type: in vivo, C57BL6J mice; conditions: stained area, LX-112 70 mg/kg oral daily 21 days
Description: (§1) After 22-month-old female C57BL6J mice (purchased from KRIBB Laboratory Animal Resource Center) were adapted to the experimental environment for one week, the aged mice were randomized into an experimental group and a control group. 8-week-old mice that were not aged were used as controls. LX-112 was mixed with 0.5% CMC-Na solution (purchased from Sigma) and administered orally at a concentration of 70 mg/kg daily for 21 days. The control group was administered only the solution in the same volume. After drug administration was completed, the method described in each Example below was performed.
Mice was sacrificed and tissue sections from muscle tissue were prepared in the same manner as in Example 7-3. Lipofuscin is a degenerative abnormal complex of proteins and lipids produced in cell lysosomes with aging and is a marker of aging-related degeneration. The amount of lipofuscin was measured as follows: the sections were stained using Sudan Black B (purchased from Sigma) and photographed, and then the area of the stained area was calculated using the Image J program and quantified by normalizing it based on the total area.

[1] = test system: urea, creatinine, Agtr1a mRNA; assay: kidney damage markers in naturally aged mice (Example 7-8); assay type: in vivo, C57BL6J mice; conditions: LX-112 70 mg/kg oral daily 21 days, aged untreated = 100%
Description: as §1
The amounts of urea and creatinine, markers of kidney damage, in serum collected from mice were measured by spectrophotometry using a kit (purchased from BioAssay Systems and Sigma). Additionally, the amount of Agtr1a mRNA, a kidney damage marker, was measured by qRT-PCR as described in Example 7-2. […] The amount of each factor after inducing aging was calculated as 100% and compared with the amount of each factor after treatment with LX-112.

[2] = fatigue/weakness tests and body weight in doxorubicin-aged mice (Example 8-7); assay type: in vivo, C57BL6J mice
Description: After adapting 8-week-old male C57BL6J mice (purchased from KRIBB Laboratory Animal Resource Center) to the experimental environment for 1 week, doxorubicin, an anticancer drug, was administered intraperitoneally at a concentration of 10 mg/kg, and mice that were induced to age for more than 10 days were assigned to an experimental group and a control group. LX-112 was mixed with 0.5% CMC-Na solution (purchased from Sigma) and administered orally at a concentration of 70 mg/kg daily for 21 days. The control group was administered only the solution in the same volume. After drug administration was completed, the method described in each Example below was performed.
In the same way as Example 7-7, in order to analyze fatigue and weakness that occur as a side effect due to treatment with anticancer drugs in mice, activity evaluation (open field test), endurance evaluation (wire hanging test), and muscle strength and grip strength test (grip strength test) were performed. […] In Table 47, the amount of each evaluation after aging was induced by treatment with the anticancer drug was calculated as 100% and compared it with the amount of each evaluation after treatment with LX-112.

[3] = Oil Red O staining of liver of obesity-aged mice (Example 9-5); assay type: in vivo, C57BL6J mice; conditions: stained area, LX-112 70 mg/kg oral daily 21 days, DIO without LX = 100%
Description: 15-week-old male C57BL6J mice (purchased from Jackson Laboratories), whose obesity was induced by a high-fat diet, were adapted to the experimental environment for one week, and then the mice were randomized into an experimental group and a control group. LX-112 was mixed with 0.5% CMC-Na solution (purchased from Sigma) and administered orally at a concentration of 70 mg/kg daily for 21 days. The control group was administered only the solution in the same volume. After drug administration was completed, the method described in each Example below was performed. Mice were sacrificed and the weight of adipose tissue in each area was measured.
Table 60 calculates the stained area of Oil Red O after aging induced by obesity as 100% and compares it with the stained area of Oil Red O after treatment with LX-112.

O=c1c2ccccc2[se]n1CCn1[se]c2ccccc2c1=O [LX-112, 1,2-[bis(1,2-benzisoselenazolone-3(2H)-ketone)]ethane]
mRNA (%) p16 (p16, p21): 43 (±4) %
mRNA (%) p21 (p16, p21): 39 (±7) %
Lipofuscin (%) Muscle (lipofuscin): 71 (±6) %
Agtr1a mRNA (%) ([1]; kidney damage marker): 64 (±7) %
Creatinine (%) ([1]; serum): 87 (±7.8) %
Urea (%) ([1]; serum): 69 (±6) %
Open Field Test Time in Center (%) ([2]; Table 47, doxorubicin-aged mice, LX-112 70 mg/kg oral daily 21 days, DOX without LX = 100): 129 (±15) %
Mean Body Weight (g) ([2]; mice, doxorubicin 10 mg/kg i.p. without or with LX-112 70 mg/kg oral daily 21 days): 22.8 (±3.1) g
Oil Red O (%) [3]: 74 (±7.3) %

Reference: US20250108036A1, “COMPOSITIONS FOR REMOVING SENESCENT CELLS AND USES THEREOF” (LIFECEUTIX CO., LTD., priority 2021, published 2025)
